Values quoted from earlier work as cited in patent US10863739B2 (AgroFresh Inc., priority 2015, dated 2020).

Conditions: gas

CC1=CC1 [1-MCP, 1-Methylcyclopropene]
flammable above a concentration: > 13,300 ppm
